A melting point compilation (Tetko et al.; mined from patent text by program, amines drawn as free bases though some values may be those of a salt)

SMILES	melting point
COc1cc(OC)nc(OC(C(=O)O)C2c3ccccc3CC2C)n1 (configuration not stated)	148 to 151 °C
Clc1ccc2nc(-c3cccs3)c(-c3ccncc3)n2n1	208 to 210 °C
O=C(c1cc(NS(=O)(=O)c2ccccc2)ccn1)N(O)Cc1ccccc1	175 to 180 °C
CC(=O)OC1CSC(Oc2cncc(-c3ccoc3)c2)C(OC(C)=O)C1OC(C)=O (configuration not stated)	127 °C
Cc1ccc(CCC(=O)C(=[N+]=[N-])C(=O)CCc2ccc(C)cc2)cc1	45.6 to 46.8 °C
CC1CCC(C(=O)N(C)C)=C2NC=C(C(N)=O)C(=O)N21 (configuration not stated)	220 °C
Cc1ccc(Cn2nc(C(=O)NC3CCCCC3C)cc2-c2ccc(Cl)c(Cl)c2)cc1Cl (configuration not stated)	165 °C
Cc1ccc(-n2nc(C(C)(C)C)cc2NC(=O)Nc2ccc(N(C)c3ccncc3)c3ccccc23)cc1	174 to 177 °C
CC(C)(O)c1cccc(S(N)(=O)=O)c1	107 to 108 °C
CC(=O)N(C)CCc1ccc(C=CC(=O)O)cc1	157 to 158 °C
CO/C=C1/C(=O)NC(=O)c2ccc(-n3cccc3)cc21	272 to 273 °C
Cc1cccc(NC(=O)NN2CCN(CCc3c[nH]c4ccccc34)CC2)c1	186 to 188 °C
Cc1cc(C)c2nccn2n1	70 to 74 °C
O=C(Nc1ccnnc1)NC1CCCCCC1	226 to 228 °C
COc1ccc2c(Cc3c(Cl)cncc3Cl)nn(CC(=O)NO)c(=O)c2c1	256 to 258 °C
OC(Cn1ccnc1)C12CC3CC(CC(C3)C1)C2 (configuration not stated)	226 to 228 °C
COCC(=O)Nc1c(C(=O)c2cccc(C)c2)[nH]c2ccc([N+](=O)[O-])cc12	155 to 157 °C
CCCCCCCC[C@@H](O)C(=O)Nc1c(SC)ccc2ncccc12	119 to 120 °C
COCOc1cc(CO)ccc1OCc1nc(-c2ccco2)oc1C	92 to 93 °C
OCCCc1cnoc1-c1ccc(OC(F)(F)F)cc1	50 to 51 °C
CC(=O)NC(C)C(=O)NCC(=O)O (racemic)	79 to 82 °C
Cc1cc(-c2nnc(C(C)(C)C)o2)ccc1N=CN(C)C	79 to 80 °C
CCCNS(=O)(=O)c1cc2cc(P(=O)(O)O)c(=O)[nH]c2cc1Cl	> 300 °C
CCNC(=S)n1nc(Oc2c(Cl)cc(C(F)(F)F)cc2Cl)cc1C	94 to 96 °C

SMILES	melting point
NC(=O)N1CCC(O[N+](=O)[O-])CC1	110 to 111 °C
CCNC1=C(c2ccc(OC)cc2)C(=O)c2cc(OC)ccc21	88 to 90 °C
c1csc(-c2nc3cc(COc4ccc(CCCn5ccnc5)cc4)ccc3o2)c1	130 to 131 °C
Cc1nc(Cl)c([N+](=O)[O-])c(N2CCc3ccccc3CC2)n1	161 to 165 °C
CC(C)(C)OC(=O)NCC1CCCc2ccc(C(=O)O)cc21 (configuration not stated)	172 to 176 °C
CCOC(=O)c1[nH]c2ccc(Cl)cc2c1S(=O)(=O)c1ccccc1	201 to 202 °C
COCCN1CCc2ccc(Nc3ncc(Cl)c(Nc4ccccc4C(=O)NCC(C)C)n3)cc2CC1	178 to 181 °C
CS(=O)(=O)OC1CCc2c(sc(N)c2C(=O)c2ccc(Cl)cc2)C1 (configuration not stated)	73 to 75 °C
CC(=O)OCCn1c(C)nc2ccccc2c1=O	158 to 160 °C
CCCCC(=O)c1c(CN(CC)C(C)(C)C)nc2cc(OC)c(OC)cc2c1-c1ccc(OC)c(OC)c1	137 to 139 °C
Cc1ccc(C2c3c(C)c(N)c(C)c(C)c3OC2(C)C)cc1 (configuration not stated)	91 to 92 °C
Fc1ccc(Br)nc1Br	47 to 48 °C
COc1cccc(CC(CO)NCCC(c2ccccc2)c2ccccc2)c1 (configuration not stated)	89 to 91 °C
CSc1nc2ccccc2n1C1CCNCC1	114 to 115 °C
CC(C)(N)COC(=O)CCc1cc(C(C)(C)C)c(O)c(C(C)(C)C)c1	97 to 99 °C
CCc1nn(C)c(NC(=O)Cc2ccc(Br)cc2)c1Cl	167 to 168 °C
Cc1cc2c(-c3cn(C)c(C(F)(F)F)cc3=O)c(F)cc(Cl)c2o1	208 to 211 °C
CCCCN(Cc1ccc(-c2ccccc2-c2nnnn2C(c2ccccc2)(c2ccccc2)c2ccccc2)cc1)c1nc(SC)ncc1C(=O)OCC	122 to 124 °C
CC(C)(C)OC(=O)NC1CCc2ccccc2NC1=O (configuration not stated)	199 to 201 °C
Nc1ccc(CCNS(=O)(=O)c2cccc3[nH]nnc23)cc1	178 to 179 °C
N#Cc1ccc(N2CCC(O)CC2)c2ccccc12	126 to 127 °C
Cc1cccc2c1N(N=C=O)C(=O)CN=C2	206 to 212 °C
CCC(=O)OC1(C(=O)CO)CCC2C3CC(C)C4=CC(=O)CCC4(C)C3C(O)CC21C (configuration not stated)	197 °C

Results, then the compound that gave them:

melting point	SMILES
149 to 150 °C	Cc1c(C)c2c(c(C)c1NC=O)CC(C)(CO)O2 (configuration not stated)
85.6 to 86.7 °C	CC(C)(CCCCCCCCCCCCC1(C(=O)O)CC1)C(=O)O
172 to 174 °C	CN(C)CCN(C)C(=O)Cn1nc(-c2ccccc2O)nc1-c1ccccc1O
187 to 189 °C	CC(C)c1ccc(-c2nc(-c3cccc(C(=O)O)c3)co2)cc1
99 °C	O=[N+]([O-])c1ccc(CCN2CCN(c3nsc4ccccc34)CC2)cc1
208 to 210 °C	Nc1c(C(=O)c2ccccc2O)oc2ccc(Cl)cc12
132 to 133 °C	CC1(C)Oc2ccsc2C(N2CC(=O)NCC2=O)C1O (configuration not stated)
145 to 146 °C	CC(=O)OCCCCCCOc1ccccc1C(=O)Nc1ccc(C(=O)N2CCCCc3ccccc32)cc1
129 to 137 °C	COc1ccc(/C=C(\C#N)c2ccc(Cl)cc2)cc1OC1CCCC1
96.5 to 97.5 °C	N#CCc1nc(C(=O)c2ccccc2)no1
126 to 128 °C	Cn1nc(-c2nc(O)c(Cl)cc2F)c(Cl)c1OC(F)F
123 to 125 °C	Oc1ccc(C2CCOCC2)cc1Cl
200 to 202 °C	O=C(O)CCCNC1=NS(=O)(=O)c2ccccc21
143 to 144 °C	O=C(NC1=NN(c2cccc(Cl)c2)CC1)C(F)(F)F
131 to 132 °C	CN(C)S(=O)(=O)n1c(C(=S)NC(=O)NS(=O)(=O)c2ccccc2Cl)nc2cc(Cl)c(Cl)cc21
194 to 195 °C	CCCS(=O)c1sc(C(N)=O)c2c1-c1c(cnn1C)CC2 (configuration not stated)
98 to 99 °C	Cc1ccc(S(=O)(=O)OCc2c([N+](=O)[O-])cccc2[N+](=O)[O-])cc1
85 to 87 °C	CCN1C(c2ccccc2C(=O)c2ccc(Cl)cc2)=NCC1(C)C
205 to 207 °C	Nc1ccc2c(ccn2C(=O)c2ccc(F)cc2)c1
140 °C	Nc1ccnc(N)c1I
65 to 66 °C	CCOC(=O)c1nc(-c2ccc(OC)cc2)sc1C
129 to 131 °C	Cc1c(-c2ccc(OC(C)C)cc2)n(Cc2ccc(OCCO)cc2)c2ccc(OCc3ccccc3)cc12
157 to 159 °C	CC(C)(CO)c1ccc(C(O)CCCN2CCC(=C3c4ccccc4CCc4ccccc43)CC2)cc1 (configuration not stated)
134 to 137 °C	CN1CC(=O)N(C)C1=NC(=O)Nc1cccc(Cl)c1
127 to 128 °C	COc1ccc(-c2nc(C(N)(C(F)(F)F)C(F)(F)F)[nH]c2-c2ccc(OC)cc2)cc1
125 to 131 °C	COC(=O)c1c(C)c(OC)cc(O[Si](C)(C)C(C)(C)C)c1C=O
108 to 110 °C	O=C1NC(=O)c2cc(Nc3ccccc3I)c(Nc3ccccc3I)cc21
264 °C	Cc1c(C)c2c(c(C3CC(=O)C=C(O)C3)c1C)OCC2 (configuration not stated)

melting point	SMILES
75 °C	CN(CCc1ccccc1)c1ssc(=O)c1Cl
208 °C	Nc1ccnc(-c2nc(=O)c3ccccc3s2)c1
182 to 184 °C	O=C(O)COc1ccc2c(-c3ccccc3F)noc2c1
144 to 146 °C	COC(=O)c1cc(-c2ccncc2)ccc1C(=O)N1CCN(C(=O)OC(C)(C)C)CC1
214 to 216 °C	CC(=O)c1c(C)c(NC(=O)CC(C)(C)C)c(C)c2c1S(=O)CC2c1ccc(C(C)C)cc1 (configuration not stated)
138 °C	CC(CN1CCCC1)N1c2ccccc2Sc2ccc(C(=O)NCc3c(Cl)cccc3Cl)cc21 (racemic)
185 °C	C[C@@H](Cn1ccc2ccc3ncccc3c21)NC(=O)OC(C)(C)C
173 to 174 °C	CC(C)C(C#N)C(=O)NC(N)=O (configuration not stated)
172 to 174 °C	Cn1ccnc1C(=O)c1cc(C(C)(C)C)c(O)c(C(C)(C)C)c1
190 °C	O=C1C=CC2(C=C1)N=C(N1CCN(Cc3ccccc3)CC1)C=C2c1ccccc1
99 to 102 °C	CNc1cc(Cc2c(-c3ccc(OCCN4CCCC4)cc3)sc3cc(O)ccc23)ccc1CN1CCCC1
138 to 142 °C	C=CC(O)C1=C(C)C(=NO)CCC1(C)C (configuration not stated)
171 to 173 °C	COC(=O)[C@H]1C[C@H](C(=O)O)Nc2cc(Br)cc(Br)c21 (relative stereo)
286 °C	O=C(Nc1cc(NC(=O)C2CCCCC2)cc(NC(=O)C2CCCCC2)c1)C1CCCCC1
84 to 89 °C	O=[N+]([O-])c1nccn1CC(F)CO (configuration not stated)
236 °C	CN1CCN(C(=O)CCC(=O)c2ccc3[nH]c4nc(Cl)ccc4c3c2)CC1
183 to 185 °C	C#CCOc1c(-c2ccccc2)c(=O)[nH]c2cc(Cl)ccc12
257 to 259 °C	Cc1nc(N)c2nc(CO)n(NC(C)C)c2c1C
118 to 120 °C	CCc1ncc(CO)c(NCc2ccc(-c3ccccc3-c3nnnn3C(c3ccccc3)(c3ccccc3)c3ccccc3)cc2)n1
251 °C	CN(c1cccc2cc(C3=NCC4(CCN(S(C)(=O)=O)CC4)S3)[nH]c12)S(=O)(=O)c1cccs1
177 to 179 °C	Cc1ccccc1CNc1cccc(-c2ccnc3c(C(=O)c4cccs4)cnn23)c1
27 to 27.5 °C	O=C(O)CCCCCCCCCC=Cc1ccccc1
205 to 207 °C	O=S(=O)(Nc1ccc2c(OCc3coc(-c4ccc(C(F)(F)F)cc4)n3)cccc2c1)C(F)(F)F
130 to 132 °C	CN1C(=O)N=NC1CSc1ccccc1OCCc1coc(-c2ccccc2)n1 (configuration not stated)
116 to 118 °C	CCOC(=O)C1=CC(=O)CC(c2ccc(Cl)c(OC)c2F)N1 (configuration not stated)
134 to 135 °C	CCNC(=O)c1c(C(F)(F)F)cccc1[Si](C)(C)C
152 to 155 °C	COc1cc(N2CCN(c3c(C)c(C)c4c(c3C)CC(C)(C)O4)CC2)ccc1F
